Measurements taken from US10918643B2, “No-donors for the treatment of cerebrovascular vasospasms after brain hemorrhage” (Westfaelische Wilhelms-Universitaet Muenster, priority 2015, dated 2021).

Legend:
[1] = system: vasospasm and DCI after SAH; conditions: cited from earlier work
[2] = system: delayed cerebral ischemia (DCI) after aneurismal SAH; assay: Clinical neurological status and outcome (Hunt&Hess, WFNS, GCS, mNIH-SS, mRS) of the SAH patient; conditions: for recurrent clinical deteriorations (times observed): despite Nimodipine and Molsidomine infusions, right- and left-sided deficits or coma
[3] = system: cerebral arteries / brain perfusion after aneurismal SAH; assay: Radiology (CT, CT-A, CT-P, DSA/arteriography, MRI) of the SAH patient; type: in vivo, human
[4] = system: cerebral vasospasm of the middle cerebral artery (MCA) after aneurismal SAH; assay: Transcranial Doppler (TCD) mean blood flow velocity in the MCAs, rescue treatment of one SAH patient; conditions: for MCA TCD R/L PRE, right / MCA TCD R/L PRE, left: continuously infused Molsidomine
[5] = 3, 6, and 12 months follow up, continuous Molsidomine plus intraventricular SNP boluses
[6] = Discharge at 38th POD, after Molsidomine + Nimodipine + 7 SNP boluses
[7] = discharge on the 38th day after SAH
[8] = discharge on the 38th day after SAH, Nimodipine + Molsidomine + 7 SNP boluses

COc1ccccc1Oc1c(NS(=O)(=O)c2ccc(C)cn2)nc(-c2ccnc(-c3nnn[nH]3)c2)nc1OCCO [Clazosentan]
outcome despite powerful suppression of (measurable) vasospasms ([1]; Macdonald et al. 2007): does not lead to an improved outcome

CCOC(=O)[N-]c1c[n+](N2CCOCC2)no1 [Molsidomine, N-ethoxycarbonyl-3-morpholinosydnonimine]
cognitive deficit [2, 5]: did not have any cognitive deficit | mNIH-SS [2, 5]: 0 | mRS [2, 5]: 0 | RESULT: cognitive skills [2, 6]: full cognitive | RESULT: mNIH-SS [2, 6]: mNIH-SS: 0 | RESULT: mRS [2, 6]: mRS: 0 | clinical stabilization (Hunt&Hess grade I, WFNS I) ([2]; Molsidomine given after failure of standard therapy, before vasospasm and DCI progressed): clinical stabilization had been achieved for a week | recurrent clinical deteriorations (times observed) [2]: 7 times | Hunt&Hess grade [2, 7]: 0 | cognitive deficit [2, 7]: without cognitive deficit | mNIH-SS grade [2, 8]: 0 | mRS grade [2, 8]: 0 | clinical status (HH I, WFNS I) ([2]; intravenous Molsidomine at the full dose, for several days): clinically stable | GCS ([2]; intravenous Molsidomine at the full dose, several days): 14-15 | clinical outcome and cerebral infarction ([1]; SAH patients treated with intravenous molsidomine (Ehlert et al., 2015)): significant improvement in clinical outcome and less cerebral infarction | RADIOLOGY pre SNP (CT; CT-A; CT-P) ([3]; POD 17th 4th episode, before 4th SNP dose, during Molsidomine, both sides l > r, CTT prolonged, high grade vasospasm in MCAs and ACA): impaired perfusion | RADIOLOGY MRI: temporal ischemic lesion and gliosis at ventricular drainage site ([3]; POD 23-38, tapering of Molsidomine and Nimodipine): MRI (5): tiny | TCD mean flow velocity in the left MCA (LMCA) ([4]; 9th day after SAH at deterioration under Molsidomine, before SNP, 140 cm/sec the day before): 150 cm/s | TCD mean flow velocity in the RMCA ([4]; 9th day after SAH at deterioration under Molsidomine, before SNP, unchanged): 80 cm/s | MCA TCD R/L PRE, right ([4]; POD 9th first episode (R hemiplegia, aphasia), before 1st SNP dose, mean flow): r: 160/ cm/sec | MCA TCD R/L PRE, left ([4]; POD 9th first episode, before 1st SNP dose, mean flow): l: 150 cm/sec | MCA TCD R/L PRE, right ([4]; POD 9th second episode (hemiplegia l, sopor), before 2nd SNP dose): r: 190 cm/sec | MCA TCD R/L PRE, right ([4]; POD 10th 3rd episode (hemiplegia l, sopor), before 3rd SNP dose): r: 170 cm/sec | MCA TCD R/L PRE, right ([4]; POD 17th 4th episode (hemiplegia, hemiparesis, sopor, intubation), before 4th SNP dose): R: 170 cm/sec | MCA TCD R/L PRE, left ([4]; POD 17th 4th episode, before 4th SNP dose): L: 120 cm/sec | MCA TCD R/L PRE, right ([4]; POD 18 6th episode (still intubated), before 6th SNP dose): R: 160 cm/sec | MCA TCD R/L PRE, left ([4]; POD 18 6th episode, before 6th SNP dose): L: 110 cm/sec | MCA TCD R/L PRE, right ([4]; POD 22 7th episode (sudden loss of vigilance), before 7th SNP dose): R: 180 cm/sec | MCA TCD R/L PRE, left ([4]; POD 22 7th episode, before 7th SNP dose): L: 140 cm/sec | MCA TCD R/L (values) ([4]; POD 23-38, tapering of Molsidomine and Nimodipine, after 7 SNP boluses): Normal | mean blood flow velocities in both MCAs ([4]; intravenous Molsidomine at the full dose (16 mg/hr), with Nimodipine): ≤ 160 cm/s

COCCOC(=O)C1=C(C)NC(C)=C(C(=O)OC(C)C)C1c1cccc([N+](=O)[O-])c1 (stereo not drawn) [Nimodipine]
recurrent clinical deteriorations (times observed) [2]: 7 times
